In ChEMBL document CHEMBL4477234, “Potent Suppressive Effects of 1-Piperidinylimidazole Based Novel P2X7 Receptor Antagonists on Cancer Cell Migration and Invasion” (J Med Chem, 2016) one finds IC50 data, which are given here for 44 compounds.

As a reminder, the IC50 is the concentration that gives 50% inhibition.

In assay [1] the target is T1, P2X purinoceptor 7 (Homo sapiens, UniProt Q99572).
T1 sequence (Q99572 whole entry): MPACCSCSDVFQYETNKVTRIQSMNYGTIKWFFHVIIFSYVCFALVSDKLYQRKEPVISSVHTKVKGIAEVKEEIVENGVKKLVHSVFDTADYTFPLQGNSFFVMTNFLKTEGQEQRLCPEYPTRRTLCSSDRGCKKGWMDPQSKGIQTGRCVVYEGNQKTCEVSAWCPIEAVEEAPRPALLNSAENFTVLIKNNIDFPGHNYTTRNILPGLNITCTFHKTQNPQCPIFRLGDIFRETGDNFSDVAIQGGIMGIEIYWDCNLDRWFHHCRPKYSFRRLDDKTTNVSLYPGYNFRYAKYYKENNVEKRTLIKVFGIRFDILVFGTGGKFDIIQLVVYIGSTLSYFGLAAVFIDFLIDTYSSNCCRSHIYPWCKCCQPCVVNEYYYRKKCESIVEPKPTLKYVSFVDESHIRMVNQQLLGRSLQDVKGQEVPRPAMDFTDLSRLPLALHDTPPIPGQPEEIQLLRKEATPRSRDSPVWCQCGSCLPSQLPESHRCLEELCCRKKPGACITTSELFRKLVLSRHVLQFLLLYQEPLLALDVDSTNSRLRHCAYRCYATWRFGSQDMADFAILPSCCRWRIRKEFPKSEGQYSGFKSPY
In words: Antagonist activity at human P2X7 receptor in LPS/IFN-gamma-differentiated human THP-1 cells assessed as suppression of BzATP-stimulated IL-1beta release per-incubated for 30 mins before BzATP addition and measured after 30 mins by ELISA. It is filed as cell-based. (ELISA stands for enzyme-linked immunosorbent assay.)

Assay [2] addresses T1, P2X purinoceptor 7. Nature of the assay: Antagonist activity at human P2X7 receptor expressed in HEK293 cells assessed as inhibition of BzATP-induced EtBr uptake measured after 2 hrs by fluorescence analysis. It is filed as cell-based.

For the compound `CS(=O)(=O)c1ccc(C(=O)N2CCN(c3cc(=O)[nH]c(=O)n3Cc3ccc(OS(=O)(=O)c4cccc5cnccc45)cc3)CC2)cc1`, the IC50 came out at 50 nM on P2X purinoceptor 7 [1] and 44 nM at P2X purinoceptor 7 [2].
For the compound `CNC(=O)c1cccc(S(=O)(=O)Oc2ccc(-c3cncn3C3CCN(C(=O)c4ccc(OC)cc4)CC3)cc2)c1`, the IC50 at P2X purinoceptor 7 [2] turned out to be 159 nM.
Consider `CN(C)c1ccc(C(=O)N2CCC(c3nc4cc(OS(=O)(=O)c5cccc6cnccc56)ccc4[nH]3)CC2)cc1`, for which the results for the IC50 at P2X purinoceptor 7 [1] and on P2X purinoceptor 7 [2] were 121 nM and 41 nM, respectively.
Taken in the same sequence, the figures for `CN(C)c1ccc(C(=O)N2CCC(n3cncc3-c3ccc(OS(=O)(=O)c4cccc(C#N)c4)cc3)CC2)cc1` were 10 nM and 32 nM.
On to `COc1ccc(C(=O)N2CCC(n3cncc3-c3ccc(OS(=O)(=O)c4cccc(C(=O)NC5CC5)c4)cc3)CC2)cc1`, for which the IC50 at P2X purinoceptor 7 [2] turned out to be 244 nM.
With `O=C(NC1CC1)c1cccc(S(=O)(=O)Oc2ccc(-c3cncn3C3CCN(C(=O)c4ccc(Cl)c(C(F)(F)F)c4)CC3)cc2)c1`, the IC50 at P2X purinoceptor 7 [1] turned out to be 58 nM; at P2X purinoceptor 7 [2] it was 88 nM.
In the same order, the values of `CNC(=O)c1cccc(S(=O)(=O)Oc2ccc(-c3cncn3C3CCN(C(=O)c4ccc(Cl)c(C(F)(F)F)c4)CC3)cc2)c1` are 1.76 nM and 112 nM.
In the same order, the values of `O=C(c1ccc(Cl)c(C(F)(F)F)c1)N1CCC(n2cncc2-c2ccc(OS(=O)(=O)c3cccc4cnccc34)cc2)CC1` are 22 nM and 45 nM.
For the compound `CNC(=O)c1cccc(S(=O)(=O)Oc2ccc(-c3cncn3C3CCN(C(=O)c4ccc(N(C)C)cc4)CC3)cc2)c1`, the half-inhibitory concentration (IC50) on P2X purinoceptor 7 [1] amounted to 22 nM; on P2X purinoceptor 7 [2] it was 25 nM.
As for `CNC(=O)c1cccc(S(=O)(=O)Oc2ccc(-c3cncn3C3CCN(C(=O)c4ccc([N+](=O)[O-])cc4)CC3)cc2)c1`, the IC50 worked out at 26 nM at P2X purinoceptor 7 [1] and 62 nM on P2X purinoceptor 7 [2].
Turning to `CS(=O)(=O)c1ccc(C(=O)N2CCC(n3cncc3-c3ccc(OS(=O)(=O)c4cccc5cnccc45)cc3)CC2)cc1`, the IC50 on P2X purinoceptor 7 [1] worked out at 0.32 nM; at P2X purinoceptor 7 [2], 25 nM.
In the same order, the values of `O=C(c1ccc([N+](=O)[O-])cc1)N1CCN(c2cc(=O)[nH]c(=O)n2Cc2ccc(OS(=O)(=O)c3cccc4cnccc34)cc2)CC1` are 32 nM and 27 nM.
Take `O=C(c1ccc(Cl)c(C(F)(F)F)c1)N1CCN(c2cc(=O)[nH]c(=O)n2Cc2ccc(OS(=O)(=O)c3cccc4cnccc34)cc2)CC1`: the results for the concentration for half-maximal inhibition (IC50) at P2X purinoceptor 7 [1] and at P2X purinoceptor 7 [2] were 18 nM and 40 nM, respectively.
As to `CN(C)c1cccc(C(=O)N2CCC(n3cncc3-c3ccc(OS(=O)(=O)c4cccc5cnccc45)cc3)CC2)c1`, the 50% inhibitory concentration (IC50) on P2X purinoceptor 7 [2] was found to be 155 nM.
For `N#Cc1cccc(S(=O)(=O)Oc2ccc(-c3cncn3C3CCN(C(=O)c4ccc(Cl)c(C(F)(F)F)c4)CC3)cc2)c1`, the half-maximal inhibitory concentration (IC50) on P2X purinoceptor 7 [1] stood at 4.28 nM; at P2X purinoceptor 7 [2], 73 nM.
With `O=C(Oc1ccc(-c2cncn2C2CCN(C(=O)c3ccc(Cl)c(C(F)(F)F)c3)CC2)cc1)c1cccs1`, the IC50 on P2X purinoceptor 7 [2] was over 10000 nM.
As for `O=C(c1ccc(Oc2ccccc2)cc1)N1CCC(n2cncc2-c2ccc(OS(=O)(=O)c3cccc4cnccc34)cc2)CC1`, the IC50 on P2X purinoceptor 7 [2] was 187 nM.
As to `CS(=O)(=O)c1ccc(C(=O)N2CCC(n3cncc3-c3ccc(OS(=O)(=O)c4cccc(C(=O)NC5CC5)c4)cc3)CC2)cc1`, the IC50 on P2X purinoceptor 7 [2] came to 400 nM.
Same read-out and setting: then `O=C(Oc1ccc(-c2cncn2C2CCN(C(=O)c3ccc(Cl)c(C(F)(F)F)c3)CC2)cc1)c1cccc2cnccc12`, with over 10000 nM; and `N#Cc1ccc(C(=O)N2CCC(n3cncc3-c3ccc(OS(=O)(=O)c4cccc5cnccc45)cc3)CC2)cc1`, with 269 nM; and `O=C(c1ccc(Cl)c(C(F)(F)F)c1)N1CCC(n2cncc2-c2ccc(OS(=O)(=O)c3cccc([N+](=O)[O-])c3)cc2)CC1`, with 249 nM.
With `CCN(CC)c1ccc(C(=O)N2CCC(n3cncc3-c3ccc(OS(=O)(=O)c4cccc5cnccc45)cc3)CC2)cc1`, on P2X purinoceptor 7 [2], the concentration for half-maximal inhibition (IC50) amounted to 1440 nM.
As to `O=C(c1ccc([N+](=O)[O-])cc1)N1CCC(c2nc3cc(OS(=O)(=O)c4cccc5cnccc45)ccc3[nH]2)CC1`, the results for the IC50 at P2X purinoceptor 7 [1] and at P2X purinoceptor 7 [2] were 17 nM and 13 nM, respectively.
Turning to `CC(C)(O)c1ccc(C(=O)N2CCC(n3cncc3-c3ccc(OS(=O)(=O)c4cccc5cnccc45)cc3)CC2)cc1`, the IC50 at P2X purinoceptor 7 [1] came out at 4.7 nM; at P2X purinoceptor 7 [2], 109 nM.
As to `O=C(c1ccc(Cl)c(C(F)(F)F)c1)N1CCC(n2cncc2-c2ccc(OS(=O)(=O)c3cccc(Br)c3)cc2)CC1`, the IC50 at P2X purinoceptor 7 [2] was 896 nM.
The same measure, in the same setting: then `O=C(NC1CC1)c1cccc(S(=O)(=O)Oc2ccc(-c3cncn3C3CCN(C(=O)c4ccc([N+](=O)[O-])cc4)CC3)cc2)c1`, with 152 nM.
On to `CS(=O)(=O)c1ccc(C(=O)N2CCC(n3cncc3-c3ccc(OS(=O)(=O)c4cccc(C#N)c4)cc3)CC2)cc1`, for which, on P2X purinoceptor 7 [2], the IC50 stood at 143 nM.
Still for that read-out and setting: then `CC(=O)Oc1ccc(-c2cncn2C2CCN(C(=O)c3ccc(Cl)c(C(F)(F)F)c3)CC2)cc1`, with over 10000 nM.
The same measure, in the same setting: then `Nc1cccc(S(=O)(=O)Oc2ccc(-c3cncn3C3CCN(C(=O)c4ccc(Cl)c(C(F)(F)F)c4)CC3)cc2)c1`, with 565 nM.
Take `N#Cc1cccc(S(=O)(=O)Oc2ccc(-c3cncn3C3CCN(C(=O)c4ccc([N+](=O)[O-])cc4)CC3)cc2)c1`: the IC50 at P2X purinoceptor 7 [1] came to 13 nM; at P2X purinoceptor 7 [2] it was 45 nM.
Take `O=C(c1ccc(Cl)c(C(F)(F)F)c1)N1CCC(n2ccc3cc(OS(=O)(=O)c4cccc5cnccc45)ccc32)CC1`: the half-inhibitory concentration (IC50) worked out at 552 nM at P2X purinoceptor 7 [1] and 430 nM on P2X purinoceptor 7 [2].
For `O=C(Oc1ccc(-c2cncn2C2CCN(C(=O)c3ccc(Cl)c(C(F)(F)F)c3)CC2)cc1)c1ccccc1`, the IC50 at P2X purinoceptor 7 [2] is over 10000 nM.
For `O=C(c1ccc([N+](=O)[O-])cc1)N1CCC(n2cncc2-c2ccc(OS(=O)(=O)c3cccc4cnccc34)cc2)CC1`, the half-maximal inhibitory concentration (IC50) turned out to be 8.29 nM at P2X purinoceptor 7 [1] and 1.49 nM on P2X purinoceptor 7 [2].
Take `COc1ccc(C(=O)N2CCC(n3cncc3-c3ccc(OS(=O)(=O)c4cccc5cnccc45)cc3)CC2)cc1`: the IC50 on P2X purinoceptor 7 [1] stood at 64 nM; on P2X purinoceptor 7 [2] it was 77 nM.
As to `CS(=O)(=O)Oc1ccc(-c2cncn2C2CCN(C(=O)c3ccc(Cl)c(C(F)(F)F)c3)CC2)cc1`, the IC50 on P2X purinoceptor 7 [2] was found to be 1570 nM.
With `O=C(c1ccc(Cl)c(C(F)(F)F)c1)N1CCC(c2nc3cc(OS(=O)(=O)c4cccc5cnccc45)ccc3[nH]2)CC1`, the IC50 was found to be 210 nM on P2X purinoceptor 7 [1] and 31 nM on P2X purinoceptor 7 [2].
Regarding `O=C(c1ccc(Cl)c(C(F)(F)F)c1)N1CCC(n2cncc2-c2ccc(OS(=O)(=O)c3ccccc3)cc2)CC1`, the IC50 on P2X purinoceptor 7 [2] is 702 nM.
On to `CC(C)c1ccc(C(=O)N2CCC(n3cncc3-c3ccc(OS(=O)(=O)c4cccc5cnccc45)cc3)CC2)cc1`, for which the IC50 turned out to be 37 nM on P2X purinoceptor 7 [1] and 55 nM on P2X purinoceptor 7 [2].
Turning to `O=C(c1ccc(Cl)c(C(F)(F)F)c1)N1CCC(n2cncc2-c2ccc(OS(=O)(=O)c3cccs3)cc2)CC1`, the 50% inhibitory concentration (IC50) on P2X purinoceptor 7 [2] worked out at 238 nM.
As for `O=C(c1ccc(Cl)c(C(F)(F)F)c1)N1CCC(n2cncc2-c2ccc(OS(=O)(=O)c3cccc4ccccc34)cc2)CC1`, at P2X purinoceptor 7 [2], the IC50 stood at 3520 nM.
Turning to `CCN(CC)C(=O)c1cccc(S(=O)(=O)Oc2ccc(-c3cncn3C3CCN(C(=O)c4ccc(Cl)c(C(F)(F)F)c4)CC3)cc2)c1`, the IC50 at P2X purinoceptor 7 [2] came to 202 nM.
Turning to `COc1ccc(C(=O)N2CCC(n3cncc3-c3ccc(OS(=O)(=O)c4cccc(C#N)c4)cc3)CC2)cc1`, the concentration for half-maximal inhibition (IC50) on P2X purinoceptor 7 [2] was found to be 312 nM.
On to `COc1ccc(C(=O)N2CCC(n3cncc3-c3ccc(OS(=O)(=O)c4cccc5cnccc45)cc3)CC2)cc1OC`, for which the half-maximal inhibitory concentration (IC50) on P2X purinoceptor 7 [2] was 259 nM.
On the same count and under the same terms, then `CNC(=O)c1cccc(S(=O)(=O)Oc2ccc(-c3cncn3C3CCN(C(=O)c4ccc(S(C)(=O)=O)cc4)CC3)cc2)c1`, with 202 nM.
